PMC8078834 (FASEB journal : official publication of the Federation of …, 2021)

Biological target: myeloperoxidase (MPO) (Homo sapiens, UniProt P05164)
Assay: microscale thermophoresis
Format: binding

myeloperoxidase (MPO), sequence (P05164 165-273): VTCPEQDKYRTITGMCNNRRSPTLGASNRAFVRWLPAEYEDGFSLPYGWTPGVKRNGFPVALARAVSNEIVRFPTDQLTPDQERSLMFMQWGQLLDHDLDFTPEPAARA
myeloperoxidase (MPO), sequence (P05164 279-745): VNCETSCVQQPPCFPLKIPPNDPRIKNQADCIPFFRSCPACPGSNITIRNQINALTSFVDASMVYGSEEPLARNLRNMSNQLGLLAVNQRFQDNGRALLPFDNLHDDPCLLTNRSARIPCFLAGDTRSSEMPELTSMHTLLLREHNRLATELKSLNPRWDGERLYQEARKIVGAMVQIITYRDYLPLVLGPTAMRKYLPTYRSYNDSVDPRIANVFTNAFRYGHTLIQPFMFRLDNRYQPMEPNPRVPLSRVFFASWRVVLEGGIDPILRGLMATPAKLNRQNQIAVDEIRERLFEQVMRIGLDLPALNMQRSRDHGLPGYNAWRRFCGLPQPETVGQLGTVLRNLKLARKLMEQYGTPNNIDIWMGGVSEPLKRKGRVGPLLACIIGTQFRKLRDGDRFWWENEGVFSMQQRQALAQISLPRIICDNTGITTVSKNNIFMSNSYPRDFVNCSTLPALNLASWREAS

In the case of `c1ccc2[nH]ccc2c1` [indole, 1H-indole], the Kd is reported as 272 ± 77.4 µM.
